Patent publication US20190144406A1, “CRYSTALLINE FORMS OF DIMETHOXY DOCETAXEL AND METHODS FOR PREPARING THE SAME” (Aventis Pharma S.A., priority 2008, published 2019)
Read-outs that look alike come from different tables or passages of the source.

Key:
[1] = solid form
Experimental: The analyses were carried out on a Panalytical X'Pert Pro diffractometer with a reflection-mode Bragg-Brentano focusing geometry (θ-2θ) assembly. The product analysed is deposited as a thin layer on a silicon single crystal. A copper anticathode tube (45 kV/40 mA) supplies an incident radiation Cu Kα1 (λ=1.5406 Å). The beam is collimated using Sollers slits which improve the parallelism and variable slits which limit scattering. An X'Celerator detector completes the device. The diagram recording characteristics are the following: sweeping from 2 to 30 degrees 2θ, counting time from 100 to 500 seconds per step with a step of 0.017°.

[2] = behaviour of the crystalline form under relative humidity; type: physicochemical; settings: relative humidity of greater than 5%

Compound | comparison of the PXRD analyses immediately after production and after maintaining at 40° C. for one month [1] | stability relative to the other forms described (listed as anhydrous form D) | stability relative to the other forms described | change of form in the presence of relative humidity [2]
CO[C@H]1C(=O)[C@]2(C)[C@@H](OC)C[C@H]3OC[C@@]3(OC(C)=O)[C@H]2[C@H](OC(=O)c2ccccc2)[C@]2(O)C[C@H](OC(=O)[C@H](O)[C@@H](NC(=O)OC(C)(C)C)c3ccccc3)C(C)=C1C2(C)C [Form A, reference compound] | partial desolvation resulting in a mixture of the acetone solvate form A and of the anhydrous form B being obtained |  |  | 
CO[C@H]1C(=O)[C@]2(C)[C@@H](OC)C[C@H]3OC[C@@]3(OC(C)=O)[C@H]2[C@H](OC(=O)c2ccccc2)[C@]2(O)C[C@H](OC(=O)[C@H](O)[C@@H](NC(=O)OC(C)(C)C)c3ccccc3)C(C)=C1C2(C)C [Form D] | no change detected | most stable anhydrous form |  | 
CO[C@H]1C(=O)[C@]2(C)[C@@H](OC)C[C@H]3OC[C@@]3(OC(C)=O)[C@H]2[C@H](OC(=O)c2ccccc2)[C@]2(O)C[C@H](OC(=O)[C@H](O)[C@@H](NC(=O)OC(C)(C)C)c3ccccc3)C(C)=C1C2(C)C [anhydrous form C] |  |  | least stable | changes to a hydrated form
